PubChem BioAssay (NCI)
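A five-concentration, 48-hour dose response in 96-well plates underlies each endpoint, interpolated linearly between surrounding concentrations. At the TGI there is no net growth.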

What was measured:
Test in all cases: DTP human tumour cell line panel, 48 h
[1] = system: LOX IMVI melanoma
[2] = system: DMS 273 small cell lung
[3] = system: OVCAR-4 ovarian
[4] = system: RXF 393 renal
[5] = system: A549 NSCLC
[6] = system: HOP-92 NSCLC
[7] = system: OVCAR-3 ovarian
[8] = system: KM20L2 colon
[9] = system: COLO 205 colon
[10] = system: HL-60(TB) leukemia

For `COC1=C(C(=O)OC(C)(C)C)[C@]2(C)C(C(=O)OC(C)(C)C)C(OC)=C(C(=O)OC(C)(C)C)[C@]2(C)C1C(=O)OC(C)(C)C` (stereo not given in full), the TGI [1] was > 100 µM, the TGI [2] was > 100 µM and the TGI [3] was > 100 µM. For the same compound, the TGI [4] was > 100 µM, the TGI [5] was > 100 µM and the TGI [6] was > 100 µM. For the same compound, the TGI [7] was > 100 µM, the TGI [8] was > 100 µM and the TGI [9] was > 100 µM. The TGI [10] was > 100 µM.
For `CC(=S)NNC(=O)c1ccncc1`, the TGI [1] was > 100 µM, the TGI [2] was > 100 µM and the TGI [3] was > 100 µM. For the same compound, the TGI [4] was > 100 µM, the TGI [5] was > 100 µM and the TGI [6] was > 100 µM. For the same compound, the TGI [7] was > 100 µM, the TGI [8] was > 100 µM and the TGI [9] was > 100 µM. For the same compound, the TGI [10] was > 100 µM.
In the case of `CC(=O)Oc1cccc2c1C(=O)C(Br)(Br)CCC2`, the TGI [1] is reported as 6.26 µM, the TGI [2] is reported as 14.9 µM and the TGI [3] is reported as 3.67 µM. It also gave a TGI [4] of 12.6 µM, a TGI [5] of 40 µM and a TGI [6] of 10.4 µM. It also gave a TGI [7] of 13.3 µM, a TGI [8] of 21.7 µM and a TGI [9] of 17.2 µM. For the same compound, the TGI [10] was 6.51 µM.
For `N#CC1(c2nc3ccccc3o2)C(=O)C(=O)N(c2ccc(Cl)c(Cl)c2)C(=O)C1=O`, the TGI [1] was > 100 µM, the TGI [2] was > 100 µM and the TGI [3] was > 100 µM. For the same compound, the TGI [4] was > 100 µM, the TGI [5] was > 100 µM and the TGI [6] was > 100 µM. The TGI [7] was > 100 µM, the TGI [8] was > 100 µM and the TGI [9] was > 100 µM. The TGI [10] was > 100 µM.
With `CC(C)(C)C(=O)C(c1ccc(-c2cscn2)cc1)c1ccc(-c2cscn2)cc1` the TGI [1] was > 100 µM, the TGI [2] was > 100 µM and the TGI [3] was 9.54 µM. For the same compound, the TGI [4] was 54.7 µM, the TGI [5] was > 100 µM and the TGI [6] was 30 µM. The TGI [7] was > 84.7 µM, the TGI [8] was > 100 µM and the TGI [9] was > 100 µM. For the same compound, the TGI [10] was > 100 µM.
In the case of `COc1cc2c(cc1OC)[C@@H](C(O)c1ccccc1)NCC2` (stereo not given in full), the TGI [1] is reported as > 100 µM, the TGI [2] is reported as > 100 µM and the TGI [3] is reported as > 100 µM. For the same compound, the TGI [4] was > 100 µM, the TGI [5] was > 100 µM and the TGI [6] was > 100 µM. The TGI [7] was > 100 µM, the TGI [8] was > 100 µM and the TGI [9] was > 100 µM. The TGI [10] was > 100 µM.
With `CC(=O)OC[C@@H]1[C@H]2CC(=O)O[C@H]2C[C@H]1OC(C)=O` the TGI [1] was > 100 µM, the TGI [2] was > 100 µM and the TGI [3] was > 100 µM. For the same compound, the TGI [4] was > 100 µM, the TGI [5] was > 100 µM and the TGI [6] was > 100 µM. The TGI [7] was > 100 µM, the TGI [8] was > 100 µM and the TGI [9] was > 100 µM. The TGI [10] was > 100 µM.
In the case of `Cc1c(C(=O)CC(=O)C(=O)Nc2cccc(C(F)(F)F)c2)[n+](=O)c2ccccc2n1[O-]`, the TGI [1] is reported as 12.7 µM, the TGI [2] is reported as 10.3 µM and the TGI [3] is reported as 13.3 µM. For the same compound, the TGI [4] was 39.5 µM, the TGI [5] was 32.1 µM and the TGI [6] was 38.9 µM. It also gave a TGI [7] of 4.92 µM, a TGI [8] of 11.8 µM and a TGI [9] of 13.4 µM. The TGI [10] was 7.65 µM.
In the case of `CN(C)CCCn1c2c3ccccc3ccc2c2oc(=O)c3ccccc3c21`, the TGI [1] is reported as 13.3 µM, the TGI [2] is reported as 4.22 µM and the TGI [3] is reported as > 95 µM. For the same compound, the TGI [4] was 2.75 µM, the TGI [5] was 11 µM and the TGI [6] was 45.7 µM. For the same compound, the TGI [7] was 9.22 µM, the TGI [8] was 2.78 µM and the TGI [9] was 5.87 µM. It also gave a TGI [10] of 93.9 µM.
